Experiments:
[1] = in vitro; format: cell-based, human; details: human
Description: (§1) The compounds were evaluated for their potential toxic effects on uninfected PHA-stimulated human PBM cells, in CEM (T-lymphoblastoid cell line obtained from American Type Culture Collection, Rockville, Md.) and Vero (African green monkey kidney) cells. PBM cells were obtained from whole blood of healthy seronegative donors (HIV-1 and hepatitis B virus) by single-step Ficoll-Hypaque discontinous gradient centrifugation. […] All of the cells were plated in 96-well cell culture plates containing ten-fold serial dilutions of the test drug. […] At the end of incubation, MTT tetrazolium dye solution (Cell titer 96®, Promega, Madison, Wis.) was added to each well and incubated overnight. The reaction was stopped with stop solubilization solution (Promega, Madison, Wis.). The plates were incubated for 5 hours to ensure that the formazan crystals were dissolved. The plates were read at a wavelength of 570 nm using an ELISA plate reader (Bio-tek instruments, Inc., Winooski, Vt., Model # EL 312e). […] Bookmark not defined.

[2] = in vitro; details: human
Description: (§2) After a three day-incubation for HepG2, or 5 days for human PBM cells, cell viability and mitochondrial activity were measured in a colorimetric assay using the MTS- or MTT dye method (Promega, Madison, Wis.).

[3] = in vitro; format: cell-based, African green monkey; details: African green monkey, Cytotoxicity (IC50) Vero
[4] = tested on: β-actin gene; format: cell-based, human; details: human, 7 days, 10 μM
Description: Low passage number HepG2 cells, obtained from American Tissue Culture Collection (ATCC, Manassas, Va.) were seeded at 5,000 cells/well in collagen-coated 96-well plates. Test compounds were added to the media to obtain a final concentration of 10 μM. On culture day 7, cellular nucleic acids were prepared by using commercially available columns (RNeasy 96 kit, Qiagen). […] The mitochondrial cytochrome C oxidase subunit II (COXII) gene and the β-actin or rRNA gene were amplified from 5 μL with a multiplex Q-PCR protocol using the suitable primers and probes for both target and reference (designed using the Primer Express software, Applied Biosystems); • for COXII. • sense primer 5′-[…]-3′ (Sequence 7); • probe 5′-TET-[…]-TAMRA-3′ (Sequence 8); and • antisense probe 5′-[…]-3′ (Sequence 9); • for exon 3 of β-actin (GenBank E01094): • sense primer 5′-[…]-3′ (Sequence 10); • probe 5′-6FAM-[…]-TAMRA-3′ (Sequnece 11); and • antisense probe 5′-[…]-3′ (Sequence 12).
The rRNA gene primers and probes were purchased from Applied Biosystems. Standard curves using 1-log diluted total HepG2 DNA were linear over more than 5 logs. In addition, efficiencies of target (COXII DNA) and reference (β-actin DNA or rRNA) amplification were approximately equal, because the slope of the ΔCt line (Ct β-actin minus Ct mitochondrial) was less than 0.1 (not shown). Since equal amplification efficiencies were obtained for both genes, the comparative cycle threshold (Ct) method was used to investigate potential inhibition of the mitochondrial DNA polymerase γ. The comparative Ct method uses arithmetic formulas in which the amount of target (COXII gene) is normalized to an endogenous reference (β-actin gene or rRNA gene) and is relative to a calibrator (no drug control at day 7). The arithmetic formula for this approach is given by 2-ΔΔCt (User bulletin # 2, Applied Biosystems).
In order to study the consequences of possible inhibitory effects of these compounds on host DNA polymerases, nuclear and rnitochondrial DNA levels were quantified and compared to no-treatment controls. Cells were incubated for 7 days with 10 μM of each compound, followed by total nucleic acid extractions and multiplex Q-PCR of the rRNA gene and the mitochondrial COXII gene. Nucleic acids from cells exposed to the control compounds were also amplified in multiplex for mitDNA and the β-actin gene. The results are presented in Table 4 using the comparative Ct method.

[5] = in vitro; details: human; remark: listed apart in the source
Description: as §2

[6] = tested on: human PBM cells; assay: in vitro; format: cell-based
Description: as §1

[7] = tested on: human PBM cells; assay: Toxicity assay (MTS/MTT dye), human PBM cells; details: read-out: Cytotoxicity PBM IC50; human PBM cells, 5 days incubation
Description: as §2

[8] = tested on: HIV-1LAI; details: human PBM cells; reported in Org. Lett. 2002; read-out: anti-HIV activity EC50; cited from earlier work
[9] = tested on: HBV; assay: HBV Q-PCR in the HepG2.2.15 cell system; format: cell-based, hepatitis B virus; details: 10 μM, HepG2.2.15 system

SMILES: Cc1cn([C@H]2C[C@H](N=[N+]=[N-])[C@@H](CO)O2)c(=O)[nH]c1=O [AZT, 3′-azido-3′-deoxythymidine, reference compound]
- IC50 at 5 days [1]: > 100 µM
- IC50 at 5 days [2]: > 100 µM
- IC50 at 3 days [3]: 28 µM
- Average ΔCt ± SD β-actin DNA [4]: 0.10 ± 0.38
- IC50 at 3 days [5]: > 100 µM

SMILES: Nc1ccn([C@@H]2C=C(F)[C@H](CO)O2)c(=O)n1 [Compound 10, 1-(2,3-Dideoxy-3-fluoro-β-L-glycero-pent-2-eno-furanosyl)cytosine]
- IC50 at 5 days [2]: > 100 µM
- IC50 at 3 days [5]: > 100 µM

SMILES: Nc1nc(=O)n([C@@H]2S[C@H](CO)C=C2F)cc1F [Compound D-18, (−)-1-[(1S,4R)-2,3-dideoxy-2,3-didehydro-2-fluoro-4-thio-β-D-ribofuranosyl]-5-fluorocytosine]
- IC50 [6]: > 100 µM
- IC50 [7]: > 100 µM

SMILES: Nc1ccn([C@H]2S[C@@H](CO)C=C2F)c(=O)n1 [Compound L-17, (+)-1-[(1S,4R)-2,3-dideoxy-2,3-didehydro-2-fluoro-4-thio-β-L-ribofuranosyl]-cytosine]
- IC50 [6]: > 100 µM
- IC50 [7]: > 100 µM
- EC50 [8]: 0.12 µM

SMILES: Nc1ccn([C@@H]2CS[C@H](CO)O2)c(=O)n1 [Compound 3TC, (−)-β-2′,3′-dideoxy-3′-thiacytidine, reference compound]
- maximal reduction of HBV DNA [9]: 0.6 logs
- IC50 at 5 days [2]: > 100 µM
- Average ΔCt ± SD β-actin DNA [4]: 0.11 ± 0.23
- IC50 at 3 days [5]: > 100 µM

SMILES: Nc1ccn([C@@H]2S[C@H](CO)C=C2F)c(=O)n1 [Compound D-17, (−)-1-[(1S,4R)-2,3-dideoxy-2,3-didehydro-2-fluoro4-thio-β-D-ribofuranosyl]-cytosine]
- IC50 [6]: > 100 µM
- IC50 [7]: > 100 µM

SMILES: Nc1ccn([C@@H]2C=C(F)[C@H](CO)O2)c(=O)n1 [Compound 23, 1-(2,3-Didcoxy-3-fluoro-β-L-glycero-pent-2-eno-furanosyl)cytosine]
- IC50 [7]: 87 µM

SMILES: Nc1nc(=O)n([C@H]2S[C@@H](CO)C=C2F)cc1F [Compound L-18, (+)-1-[(1S,4R)-2,3-dideoxy-2,3-didehydro-2-fluoro-4-thio-β-L-ribofuranosyl]-5-fluoro-cytosine]
- IC50 [6]: > 100 µM
- IC50 [7]: > 100 µM

Source: US6949522B2, “β-2′- or 3′-halonucleosides” (Pharmasset, Inc., priority 2001, dated 2005)
